Activity calls are given as the source filed them. The rule behind the calls is not given here.
Tested on: S. cerevisiae expressing PfHSP40, growth rescue, plate reader
Test: Yeast growth rescue from Plasmodium falciparum HSP40 toxicity, dose response confirmatory, plate reader (AID 540271);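 note: yeast growth read after three days of incubation at 30 °C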

| Structure (SMILES) | AC50 |
| --- | --- |
| Cc1ccccc1CN(C)CCS(=O)(=O)c1cc(Cl)ccc1Cl | > 12 µM (inactive) |
| C=CS(=O)(=O)c1sc(Cl)c(N2CCOCC2)c1[N+](=O)[O-] | 1.91 µM |
| CCCCOC(=O)/C=C/c1ccc(OC(=O)OC)c(OC(=O)OC)c1 | 5.54 µM |
| Cc1ccc(C)c(S(=O)(=O)N2CCN(Cc3ccc(O)c4ncccc34)CC2)c1 | 5.23 µM |
| O=C(Nc1nc(-c2ccccn2)cs1)c1ccc(Br)s1 | 0.584 µM |
| CCn1nc(/C=C/c2ccccc2)nc2c(=O)n(C)c(=O)nc1-2 | 2.36 µM |
| CCOC(=O)c1ccc(NC(=S)N(Cc2cccnc2)Cc2ccco2)cc1 | 6.54 µM |
| c1ccc(C(=NNc2nc3ccccc3s2)c2ccccn2)cc1 | 2.52 µM |
| COc1cnc(-c2ccccn2)nc1Sc1ccccc1 | 6.99 µM |
| COc1cccc(-n2nc(C#N)c(Cl)cc2=O)c1 | 5.59 µM |
| O=c1c(CO)cc(CO)cc(CO)c1O | 6.03 µM |
| COc1cccc(NC=C2C(=O)OC3(CCCCC3)OC2=O)c1 | 9.91 µM |
| O=C(/C(=N/N=C/c1ccc(O)c(O)c1O)c1ccccc1)c1ccccc1 | 6.09 µM |
| Cc1cccc(NC(=S)NC(C)CCc2ccccc2)c1 (stereo not given) | 7.92 µM |
| Clc1cccc(CON/C=N/c2ncnc3sccc23)c1 | 3.74 µM |
| CCN(CC)c1ccc(/C=C/c2ccc3ccc(OC)cc3[n+]2CC)cc1 | 5.78 µM |
| CC12CCC(O)CC1=CCC1C2CCC2(C)C3=NN=CC3CC12 (stereo not given) | 11.4 µM |
| Clc1ccc(C2=NCCN2)cc1 | 2.38 µM |
| CC1(C)C2CCC1(C)C(OC(=O)c1ccc(O)cc1)C2 (stereo not given) | 4.38 µM |
| Cc1[nH]n(-c2cccc3ccccc23)c(=O)c1/C=N/NC(=O)c1cccc([N+](=O)[O-])c1 | 1.48 µM |
| CC(=O)C1=C(c2ccc(Br)cc2)C(=O)c2ccccc2C1=O | 2.62 µM |
| O=C(CSc1ccc(-c2ccccn2)nn1)c1ccccc1 | 2.48 µM |
| CCOC(=O)c1c2c(n(-c3ccc(OC)cc3)c1C)C(=O)C(=O)c1ccccc1-2 | 3.97 µM |

| Structure (SMILES) | AC50 |
| --- | --- |
| Cc1cc(C)c2sc(NNC(=O)c3ccc(S(=O)(=O)N4CCc5ccccc5C4)cc3)nc2c1 | 1.48 µM |
| Cc1ccc(C)c(NS(=O)(=O)c2cc(C(=O)N3CCc4ccccc4C3)ccc2Cl)c1 | 6.77 µM |
| Cc1cc(C)c(C(=O)CC(=O)c2cccnc2)c(C)c1 | 2.06 µM |
| CCCn1c(=O)c(C(=O)NCc2ccc(OC)c(OC)c2)c(O)c2ccccc21 | 2.32 µM |
| Cc1ccc(-n2nnnc2C(Cl)c2nnnn2-c2ccc(C)cc2)cc1 | 3.4 µM |
| CN(C)c1ccc(C=c2c3ccccc3n3c2cc(-c2ccc(Cl)cc2)[n+]3C)cc1 | 7.4 µM |
| Fc1ccc(CCNC(=S)Nc2ccc(F)c(Cl)c2)cc1 | 7.64 µM |
| CCCCC(=O)NC(c1ccc(OC)c(OC)c1)c1ccc2cccnc2c1O (stereo not given) | 1.83 µM |
| Oc1ccc(Br)cc1/C=N/Nc1ccccn1 | 5.39 µM |
| O=[N+]([O-])c1cc2oc3c(c2c(C=NCc2ccccc2)c1O)CCCC3 | 0.986 µM |
| O/N=C(\c1ccc(Cl)cc1Cl)c1ncc(C(F)(F)F)cc1Cl | 9.27 µM |
| COc1ccc(-c2oc3ccccc3c2C#Cc2cncn2C)cc1 | 4.94 µM |
| Nc1nc(-c2ccccc2)c(-c2ccc([N+](=O)[O-])cc2)s1 | 3.99 µM |
| CCOc1ccc(-n2c(O)c(/C=N/NC(=O)C3COc4ccccc4O3)c3ccccc3c2=O)cc1 (stereo not given) | 4.11 µM |
| COc1ccc2c(c1)OC[C@H]1[C@H]2N2C(=O)c3cc(C)ccc3NC(=O)[C@@]2(C)[C@H]1c1ccccc1 | 6.11 µM |
| Oc1c(Br)cc(-c2ccccc2)cc1Br | 4.93 µM |
| CCCCCOc1ccc(CSc2n[nH]c(C)n2)cc1 | 3.81 µM |
| O=C(c1ccc(-c2ccccc2)cc1)C1CCCN(C(=O)c2cncs2)C1 (stereo not given) | 5.93 µM |
| C=CCN(CC=C)C(=S)NC(=O)c1ccc(OC)c(Br)c1 | 7.96 µM |
| O=C(CC1(O)C(=O)Nc2cc(Cl)cc(Cl)c21)c1ccncc1 (stereo not given) | > 12 µM (inactive) |
| COc1cc([N+](=O)[O-])cc(/C=N/NC(=O)c2cncc(Br)c2)c1O | 4.36 µM |
| O=Cc1ccc(O)c2ncccc12 | 0.366 µM |
| Cc1onc(-c2c(Cl)cccc2Cl)c1C(=O)N/N=C(\N)COc1ccc(Cl)cc1 | 3.02 µM |

| Structure (SMILES) | AC50 |
| --- | --- |
| Cc1cc([N+](=O)[O-])c(NC2CCCCC2)c([N+](=O)[O-])c1 | 9.82 µM |
| CCCCCCCCCCCCCC(=O)NO | 0.727 µM |
| O=C1/C(=C/c2cccs2)SC(=S)N1NS(=O)(=O)c1ccccc1 | 3.9 µM |
| Cc1ccc2oc(-c3ccccc3)c(C(=O)O)c(=O)c2c1 | 5.94 µM |
| CCOC(=O)N1CCN(S(=O)(=O)c2ccc(C(=O)NNc3nc4ccc(Cl)cc4s3)cc2)CC1 | 5.51 µM |
| O=C(NCc1ccncc1)c1ccccc1Nc1ccc(SC(F)F)cc1 | 5.31 µM |
| O=c1[nH]c(=O)n(C2OC(CO)C(O)C2O)cc1F (stereo not given) | 5.04 µM |
| O=C(COc1ccccc1F)Nc1nc(-c2ccccn2)cs1 | 5.52 µM |
| Cc1ccc(-c2c3c(nc4sc(C(N)=O)c(N)c24)CCCC3)o1 | 6.13 µM |
| CC(C)N1CCN(c2ccc(OC[C@H]3CO[C@](Cn4cncn4)(c4ccc(Cl)cc4Cl)O3)cc2)CC1 | 2 µM |
| OCCN(CCO)c1cc2c3ccccc3ccc2c2ccccc12 | 5.56 µM |
| O=C(Oc1ccc(N(C(=O)c2ccncc2)S(=O)(=O)c2ccc(Cl)cc2)cc1)c1ccncc1 | 5.85 µM |
| CCc1cc(-c2[nH]ncc2-c2ccc([N+](=O)[O-])cc2)c(O)cc1OC | 6.19 µM |
| Cc1c(C(=O)NCCSCc2cccc(C(F)(F)F)c2)cnn1-c1ccc(Cl)cc1 | 6.1 µM |
| O=C(C1=C(Nc2ccccc2)c2ccccc2S(=O)(=O)N1)c1ccccc1 | 5.09 µM |
| CSc1nccc(NC(=O)c2ccc(C(C)(C)C)cc2)n1 | 5.08 µM |
| CC(=O)Oc1ccc(OC(C)=O)c(SCCCCCCl)c1 | 7.6 µM |
| CCc1sc(C(=O)Nc2nc(-c3ccccn3)cs2)cc1C | 1.82 µM |
| O=C(O)c1ccccc1NS(=O)(=O)c1cccc(-n2sc3ccccc3c2=O)c1 | 4.78 µM |
| Cc1ccccc1OCC(O)Cn1c2ccccc2c2ccccc21 (stereo not given) | 4.74 µM |
| O=C(CSc1ccc(-c2ccccn2)nn1)N1CCCc2ccccc21 | 3.52 µM |
| CCCCNc1c(-c2ccc(-c3ccc(OC)cc3)c(OC)c2)nc2ccccn12 | 5.48 µM |
| CCC1=NN(C(=O)c2cccc(Br)c2)C(O)(c2ccc(Br)cc2)C1 (stereo not given) | 5.92 µM |

| Structure (SMILES) | AC50 |
| --- | --- |
| O=c1c2ccccc2c(-c2ccc(O)cc2)nn1-c1cccc(C(F)(F)F)c1 | 3.92 µM |
| CC(=O)c1c(C)oc2c1C(=O)c1ccccc1C2=O | 5.09 µM |
| Cc1ccc([C@@H]2CC=C(C(=O)O)[C@H](c3ccc(Br)cc3)N2S(=O)(=O)c2ccccc2C)cc1 | 5.21 µM |
| c1ccc(CSc2ccc(-c3ccccn3)nn2)nc1 | 4.49 µM |
| CC(NC(=S)NC1CCC(C(C)(C)C)CC1)c1ccccc1 (stereo not given) | 6.86 µM |
| CCc1ccc([C@@H]2CC=C(C(=O)O)[C@H](c3ccc(Cl)cc3)N2S(=O)(=O)c2ccc(C)cc2)cc1 | 5.39 µM |
| CCCC(=O)NC(c1ccccc1OC)c1ccc2cccnc2c1O (stereo not given) | 1.7 µM |
| O=C(C1CCN(C2CC(=O)N(c3cccc(Cl)c3)C2=O)CC1)N1CCCC1 (stereo not given) | 6.02 µM |
| CCOC(=O)c1ccc(N2C(=O)CC(N3CCC(O)(c4ccc(Cl)cc4)CC3)C2=O)cc1 (stereo not given) | 6.57 µM |
| CCn1c2ccc(C)cc2c2nc3cc(C(=O)O)ccc3nc21 | 2.57 µM |
| O=NN(CCc1ccncc1)c1ccc(OCc2ccccc2)cc1 | 5.81 µM |
| CCCS(=O)(=O)c1c(S(=O)(=O)CCC)c2c(C)cccn2c1C(=O)N/N=C/c1cc(O)cc(O)c1 | 3.51 µM |
| O=C(CSc1ccc(-c2ccccn2)nn1)NCc1ccc(F)cc1 | 4.86 µM |
| O=C(O/N=C(\c1ccccc1)c1ccncc1)c1ccccc1Cl | > 12 µM (inactive) |
| COc1ccc(OC)c(-c2c3cc(O)c(=O)cc-3oc3cc(O)c(O)cc23)c1 | 3.79 µM |
| COc1ccc(-c2cc(C(=O)N3CCN(c4ccccc4F)CC3)c3ccccc3n2)c(OC)c1 | 5.68 µM |
| CCCCCCSc1ccc(-c2nc3ccccn3c2NCCCC)cc1 | 6.05 µM |
| CCCCCCn1c(=O)c(C(=O)Nc2ncccc2C)c(O)c2ccccc21 | 3.03 µM |
| CCc1nc2ccccc2c(=O)n1NC(=O)c1c(O)c2ccccc2n(CC)c1=O | 5.74 µM |
| C=CCNC(=S)N1CCC(Cc2ccccc2)CC1 | 11.3 µM |
| Oc1ccccc1-c1cc(-c2ccc3c(c2)OCCO3)n[nH]1 | 5.24 µM |
| Cc1cccc(N2CCN(C(=O)C3COc4ccccc4O3)CC2)c1C (stereo not given) | 6.72 µM |
| COc1ccc(O)c(C(=O)CC(=O)c2ccc(F)cc2)c1 | 0.977 µM |

| Structure (SMILES) | AC50 |
| --- | --- |
| COc1cc(C(=O)ON=C2C3CC4CC(C3)CC2C4)cc(OC)c1OC | 5.01 µM |
| C[C@H](O)[C@H]1CC[C@H]2[C@@H]3CCC4=CC(=O)CC[C@]4(C)[C@H]3CC[C@]12C | 6.85 µM |
| C=CCc1ccc(O)c(-c2ccc(O)c(CC=C)c2)c1 | 4.8 µM |
| c1ccc(Cn2cc(-c3cccnc3)cn2)cc1 | 1.62 µM |
| O=C1C(=C(I)I)c2ccccc2-c2ccccc21 | 5.61 µM |
| COC(OC)c1ccc(C#N)c(SCc2ccccc2)n1 | 7.52 µM |
| O=CC1=C(c2ccccc2)Oc2ccccc2O1 | 2.78 µM |
| CCCCCCCCCCOC(=O)Cn1c(COc2ccc(OC)cc2)[n+](C)c2ccccc21 | 6.37 µM |
| COC(=O)c1ccc(N2C(=O)CC(N(C)CCc3ccc(OC)c(OC)c3)C2=O)cc1 (stereo not given) | 5.2 µM |
| Clc1ccc(-c2n[nH]c3c2CCC3)cc1Cl | 5.64 µM |
| CCCC(C)Sc1nc2c([nH]1)c(=S)n(C)c(=O)n2C (stereo not given) | 8.18 µM |
| O=C(N/N=C/c1cc(Br)ccc1O)c1ccccc1Cl | 4.83 µM |
| Cc1nn(CCC#N)c(N)c1C1(O)C(=O)Nc2c(Cl)cc(Cl)cc21 (stereo not given) | 7.66 µM |
| O=C(Nc1ccccc1N1CCOCC1)c1cc2c(s1)CCCCC2 | 6.04 µM |
| O=c1c2ccccc2nc(-c2ccc(-c3ccccc3)cc2)n1-c1ccncc1 | 6.21 µM |
| Cc1ccc(Sc2ccc(NC(=O)CCl)cc2)cc1C | 4.54 µM |
| CCOC(=O)c1c(C)oc2c1C(=O)c1ccccc1C2=O | 6.76 µM |
| COc1ccc(N=N/C(=C\O)C(=O)c2cccs2)cc1 | 7.25 µM |
| COc1cc(OC)c(-c2c3cc(O)c(=O)cc-3oc3cc(O)c(O)cc23)cc1OC | 1.67 µM |
| Cc1cc(C(=O)N/N=C/c2cc(Br)cc([N+](=O)[O-])c2O)c2ccccc2n1 | 3.37 µM |
| COc1ccc(N(C(=O)c2ccncc2)S(=O)(=O)c2ccc(F)cc2)cc1 | 5.25 µM |
| Cc1cccc2sc(NNC(=O)c3ccc(S(=O)(=O)N4CCCC(C)C4)cc3)nc12 (stereo not given) | 2.81 µM |
| Cc1csc(NC(=S)Nc2cccc(Cl)c2)n1 | 11.2 µM |

— PubChem BioAssay AID540271 (Broad Institute, 2011)
